{"source": "patent US20090258385A1", "about": "“METHOD OF ANALYZING CELLS BY FLOW CYTOMETRY, USE OF AN ANTIOXIDANT AND/OR FREE RADICAL-SCAVENGING AGENT IN SUCH A METHOD AND INCUBATION BUFFER COMPRISING AN ANTIOXIDANT AND/OR FREE RADICAL-SCAVENGING AGENT” (Hopitaux de Paris, priority 2008, published 2009)", "key": {"[1]": {"tested_on": "neutrophilic polynuclear cells", "experimental": "(§1) Aliquots of human peripheral blood (containing 500,000 leukocytes) were incubated in the lysis buffer and then washed three times with 1×PBS supplemented with 2.5% FBS. The cells (500,000) were then immuno-labeled with 5 μl of each of the desired antibodies conjugated either with the desired APC tandem or with APC alone in 100 μl of incubation buffer for 20 min at room temperature, and washed three times with the PBS/FBS solution and resuspended in 200 μl of PBS/FBS solution.\n(§2) The dead cells were labeled for their exclusion during analysis of the data acquired by flow cytometry using the intercalating agent 7-aminoactinomycin-D (7-AAD) from SIGMA-ALDRICH."}, "monocytes": {"tested_on": "monocytes", "experimental": "as §1, §2"}, "[2]": {"tested_on": "monocytes labeled with anti-CD45 antibody conjugated with APC tandem", "assay": "percentage of decoupling of APC tandem on immunolabeled monocytes by flow cytometry", "type": "cell-based, human", "source_text": "(§3) The terms “percentage of decoupling”, “% decoupling”, “% decoupling APC vs APC-Cy7”, “% decoupling APC vs APC-H7” are used in the preceding text and in the text which follows and in the accompanying figures to denote the ratio:\n(§4) [Number of cells which, although having been labeled with an APC tandem, emit fluorescence into the APC channel (and not into the channel of the APC tandem used)]/[total number of cells which have been labeled with the APC tandem, regardless of the channel into which they emit],\n(§5) this ratio being multiplied by 100.\n(§6) For each immunolabeling experiment, the cells were mixed and subjected to flow cytometry analysis on a Becton Dickinson FACSCanto II apparatus. From 10,000 to 50,000 events were acquired per test. The singlet cells were selected by a commonly used cell sorting procedure: intersection of the three windows (P1, P2 and P3) of the biparametric histograms.\n(§7) For each type of cells, the percentage of decoupling was calculated as previously described using the BD […] software.\n(§8) The results are represented in FIGS. 25 and 26."}, "[3]": {"assay": "decoupling / signal impairment of APC tandem attached to beads (no cells)", "from_the_text": "For that, they analyzed the stability of the APC tandem fluorochromes attached to lymphocytes and compared it to the stability of these same APC tandems attached to beads. This comparison makes it possible to determine whether or not it is the APC tandem which is degraded, regardless of the context in which it is used, or if the APC tandem is only degraded in the presence of cells.\nThe beads used in these experiments were beads Compbeads® from Becton Dickinson.\nThe lymphocytes, like the beads, were labeled with anti-CD45 antibodies conjugated with the APC-Cy7 tandem fluorochrome or with the APC-H7 tandem fluorochrome."}, "cells": {"tested_on": "cells", "assay": "toxicity to cells at the concentrations used", "type": "cell-based"}, "[4]": {"tested_on": "lymphocytes labeled with anti-CD45 antibody conjugated with APC tandem", "assay": "percentage of decoupling of APC tandem on immunolabeled lymphocytes by flow cytometry", "type": "cell-based, human", "method": "The positivity threshold was determined in the APC channel at the time T0 and related to the time T30. The percentage of “decoupled” cells was expressed as the ratio of the total number of both APC- and APC tandem-positive cells to the total APC tandem-positive lymphocytes."}, "[5]": {"tested_on": "neutrophilic polynuclear cells labeled with anti-CD45 antibody conjugated with APC tandem", "assay": "percentage of decoupling of APC tandem on immunolabeled neutrophilic polynuclear cells by flow cytometry", "type": "cell-based, human", "source_text": "as §3, §4, §5, §6, §7, §8"}, "lymphocytes": {"tested_on": "lymphocytes", "assay": "viability and morphology of lymphocytes", "type": "cell-based, human"}, "[6]": {"conditions": "neutrophilic polynuclear cells, H2O2"}}, "data": [{"smiles": "[N-]=[N+]=[N-]", "note": "[NaN3, sodium azide]", "values": [{"measurement": "effect on cell viability", "setting": "[1]; neutrophilic polynuclear leukocytes, NaN3", "result": "without affecting cell viability"}, {"measurement": "effect on cell viability", "setting": "monocytes; NaN3", "result": "without affecting cell viability"}]}, {"smiles": "O=C1O[C@H]([C@@H](O)CO)C(O)=C1O", "note": "[vitamin C, L-ascorbic acid]", "values": [{"measurement": "concentration at which a sufficient decrease of the percentage of decoupling appears", "setting": "[2]", "result": 1, "unit": "mM"}, {"measurement": "concentration up to which the decrease of decoupling exists", "setting": "[2]", "result": "≤ 10", "unit": "mM"}, {"measurement": "effect on impairment of the APC tandem signal caused by H2O2", "setting": "[3]; beads Compbeads, H2O2 0 to 1 mM, 1 mM vitamin C", "result": "blocks the impairment of the signal"}, {"measurement": "toxicity to cells", "setting": "cells", "result": "not toxic to cells"}, {"measurement": "concentration above which cells begin to undergo a decrease in viability", "setting": "[1]; neutrophilic polynuclear cells", "result": "Above 10 mM"}, {"measurement": "concentration above which cells begin to undergo morphological impairment", "setting": "[1]; neutrophilic polynuclear cells", "result": "Above 4 mM"}, {"measurement": "concentration above which viability and morphology are modified", "setting": "monocytes", "result": "> 10", "unit": "mM"}, {"measurement": "effect on percentage of decoupling over time", "setting": "[4]; anti-CD45 APC-Cy7, 1 mM vitamin C, room temperature, monitored 1 hour", "result": "strongly inhibits"}, {"measurement": "effect on percentage of decoupling", "setting": "[4]; vitamin C 0.1 mM", "result": "only a reduced effect"}, {"measurement": "concentration at which a sufficient decrease of the percentage of decoupling is obtained", "setting": "[5]; neutrophilic polynuclear cells", "result": 0.25, "unit": "mM"}, {"measurement": "concentration up to which the decrease of decoupling exists", "setting": "[5]; neutrophilic polynuclear cells", "result": "≤ 10", "unit": "mM"}, {"measurement": "effect on percentage of decoupling over time", "setting": "[5]; neutrophilic polynuclear leukocytes, anti-CD45 APC-Cy7, 1 mM vitamin C, room temperature, monitored 1 hour", "result": "strongly inhibits"}, {"measurement": "concentration above which morphology and viability are modified", "setting": "lymphocytes", "result": "above 10 mM"}]}, {"smiles": "OO", "note": "[H2O2, hydrogen peroxide]", "values": [{"measurement": "effect on decoupling compared with lymphocytes", "setting": "[2]; H2O2", "result": "comparable role"}, {"measurement": "decoupling of antibodies conjugated with APC-Cy7 attached to beads", "setting": "[3]; beads, over time, H2O2", "result": "could induce the decoupling"}, {"measurement": "effect on viability of the cells", "setting": "[1]; [6]", "result": "without any effect on the viability"}, {"measurement": "effect on viability of the cells", "setting": "monocytes; H2O2", "result": "without any effect on the viability"}, {"measurement": "effect on percentage of decoupling", "setting": "[4]; anti-CD45 APC-Cy7, 0.01 mM H2O2, 20 to 60 minutes", "result": "does not modify"}, {"measurement": "effect on percentage of decoupling", "setting": "[4]; anti-CD45 APC-Cy7, 0.1 mM H2O2, 20 to 60 minutes", "result": "increased"}, {"measurement": "effect on decoupling compared with lymphocytes", "setting": "[5]; [6]", "result": "comparable role"}]}]}
